Reference: patent US20100093725A1, “SEMI-SOLID FORMULATIONS OF PHOSPHOLIPASE ENZYME INHIBITORS” (Wyeth, priority 2006, published 2010)

What was measured:
[1] = Solubility at room temperature in water, acid and basic conditions; format: physicochemical; settings: aqueous solution under acid conditions (free acid form), aqueous buffer, HPLC detection limit, read-out: intrinsic solubility of the free acid
Method: The solubility of 4-(3-{5-chloro-1-(diphenylmethyl)-2-[2-({[2-(trifluoromethyl)benzyl]sulfonyl}amino)ethyl]-1H-indol-3-yl}propyl)benzoic acid was measured at room temperature in water, acid and basic conditions.

[2] = tested on: carrageenan-induced paw edema; experiment: Rat carrageenan-induced paw edema (CPE) study; format: in vivo
Method: Data from a rat carrageenan-induced paw edema (CPE) study indicated the minimum efficacious exposure of 4-(3-{5-chloro-1-(diphenylmethyl)-2-[2-({[2-(trifluoromethyl)benzyl]sulfonyl}amino) ethyl]-1H-indol-3-yl}propyl)benzoic acid was 1360 ng*hr/ml.

- solubility [1]: < 0.031 µg/mL
Structure (SMILES): O=C(O)c1ccc(CCCc2c(CCNS(=O)(=O)Cc3ccccc3C(F)(F)F)n(C(c3ccccc3)c3ccccc3)c3ccc(Cl)cc23)cc1 [4-(3-{5-chloro-1-(diphenylmethyl)-2-[2-({[2-(trifluoromethyl)benzyl]sulfonyl}amino)ethyl]-1H-indol-3-yl}propyl)benzoic acid]
- minimum efficacious exposure [2]: 1360 ng·h/mL
